Results from patent US20180066295A1, “DEAMINATION OF ORGANOPHOSPHORUS-NUCLEOSIDES” (INSTITUT UNIV. DE CIÈNCIA I TECNOLOGIA, S. A., priority 2015, published 2018).
Structures can show the parent of a compound that is named as a salt. Where two headings read alike, the source gives them in different places.

Columns and labels:
[1] = tested on: cytidine deaminase; details: 37° C.; for yield of deaminated product (HPLC, crude mixture): 5 hours
Experimental: The reaction was performed at 37° C. during […] and stopped with HCl. Then, the crude reaction was filtered through a 10 KDa membrane, and a portion was diluted and analyzed by HPLC under UV-DAD (ultraviolet-diode array detection). Product identification was performed by comparison to a standard sample.
After 5 hours, the reaction was stopped with HCl and a portion of the reaction was diluted and filtered for HPLC and MS analysis.

[2] = target: T1, adenosine deaminase (Homo sapiens, UniProt P00813); details: commercially available purified enzyme, analytical conditions; cited from earlier work
T1 sequence (P00813 1-363): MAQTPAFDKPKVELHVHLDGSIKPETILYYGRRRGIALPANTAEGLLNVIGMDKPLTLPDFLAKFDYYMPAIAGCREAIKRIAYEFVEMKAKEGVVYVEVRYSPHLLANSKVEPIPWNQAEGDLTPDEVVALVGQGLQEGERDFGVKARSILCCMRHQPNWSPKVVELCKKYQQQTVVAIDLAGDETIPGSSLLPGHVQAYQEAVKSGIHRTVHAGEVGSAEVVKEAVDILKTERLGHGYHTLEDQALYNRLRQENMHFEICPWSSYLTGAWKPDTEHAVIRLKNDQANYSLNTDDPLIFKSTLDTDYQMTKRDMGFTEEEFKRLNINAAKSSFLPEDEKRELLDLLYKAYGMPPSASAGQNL

[3] = 20 mM substrate, KH2PO4 100 mM pH 7.0, 90 AU cytidine deaminase
[4] = 100 mM substrate, KH2PO4 100 mM pH 7.0, 36-240 AU cytidine deaminase

| Compound | yield of deaminated product (HPLC, crude mixture) [1, 3] | yield of deaminated product (HPLC, crude mixture) [1, 4] | further results |
| --- | --- | --- | --- |
| COC(=O)[C@H](CC(C)C)NP(=O)(OC[C@H]1O[C@@H](n2ccc(N)nc2=O)[C@H](O)[C@@H]1O)Oc1ccccc1 (stereo partly drawn) [compound 10, methyl ((((2R,3S,4R,5R)-5-(4-amino-2-oxopyrimidin-1(2H)-yl)-3,4-dihydroxytetrahydrofuran-2-yl)methoxy)(phenoxy)phosphoryl)-L-leucinate hydrochloride] | > 70% | – | – |
| COC(=O)[C@@H](NP(=O)(OC[C@H]1O[C@@H](n2ccc(N)nc2=O)[C@H](O)[C@@H]1O)Oc1ccccc1)C(C)C (stereo partly drawn) [compound 12, methyl ((((2R,3S,4R,5R)-5-(4-amino-2-oxopyrimidin-1 (2H)-yl)-3,4-dihydroxytetrahydrofuran-2-yl)methoxy)(phenoxy)phosphoryl)-L-valinate hydrochloride] | > 70% | – | – |
| CC(C)OC(=O)[C@H](C)NP(=O)(OC[C@H]1O[C@@H](n2ccc(N)nc2=O)[C@H](O)[C@@H]1O)Oc1ccccc1 (stereo partly drawn) [compound 14, isopropyl ((((2R,3S,4R,5R)-5-(4-amino-2-oxopyrimidin-1(2H)-yl)-3,4-dihydroxytetrahydrofuran-2-yl)methoxy)(phenoxy)phosphoryl)-L-alaninate hydrochloride] | quantitatively | – | – |
| COC(=O)[C@H](C)NP(=O)(OC[C@H]1O[C@@H](n2ccc(N)nc2=O)[C@H](O)[C@@H]1O)Oc1ccccc1.Cl (stereo partly drawn) [compound 14-Me, methyl ((((2R,3S,4R,5R)-5-(4-amino-2-oxopyrimidin-1 (2H)-yl)-3,4-dihydroxytetrahydrofuran-2-yl)methoxy)(phenoxy)phosphoryl)-L-alaninate hydrochloride] | > 80% | – | – |
| COC(=O)[C@H](CC(C)C)NP(=O)(OC[C@H]1O[C@@H](n2ccc(N)nc2=O)C(F)(F)[C@@H]1O)Oc1ccccc1 (stereo partly drawn) [compound 16, methyl ((((2R,3R,5R)-5-(4-amino-2-oxopyrimidin-1(2H)-yl)-4,4-difluoro-3-hydroxytetrahydrofuran-2-yl)methoxy)(phenoxy)phosphoryl)-L-leucinate] | – | quantitatively | – |
| COC(=O)[C@@H](NP(=O)(OC[C@H]1O[C@@H](n2ccc(N)nc2=O)C(F)(F)[C@@H]1O)Oc1ccccc1)C(C)C (stereo partly drawn) [compound 17, methyl ((((2R,3R,5R)-5-(4-amino-2-oxopyrimidin-1 (2H)-yl)-4,4-difluoro-3-hydroxytetrahydrofuran-2-yl)methoxy)(phenoxy)phosphoryl)-L-valinate] | – | quantitative yield | – |
| CC(C)OC(=O)[C@H](C)NP(=O)(OC[C@H]1O[C@@H](n2ccc(N)nc2=O)C(F)(F)[C@@H]1O)Oc1ccccc1 (stereo partly drawn) [compound 18, isopropyl ((((2R,3R,5R)-5-(4-amino-2-oxopyrimidin-1 (2H)-yl)-4,4-difluoro-3-hydroxytetrahydrofuran-2-yl)methoxy)(phenoxy)phosphoryl)-L-alaninate] | – | quantitative yield | – |
| COC(=O)[C@@H](NP(=O)(OC[C@H]1O[C@@H](n2cnc(N)nc2=O)C[C@@H]1O)Oc1ccccc1)C(C)C (stereo partly drawn) [compound 21, methyl ((((2R,3S,5R)-5-(4-amino-2-oxo-1,3,5-triazin-1(2H)-yl)-3-hydroxytetrahydrofuran-2-yl)methoxy)(phenoxy)phosphoryl)-L-valinate] | – | – | yield of deaminated product (HPLC) ([1]; pH 6, 13 mM substrate, KH2PO4 100 mM, 66 AU cytidine deaminase, 24 hours): higher than 90%; conversion into deaminated product ([1]; pH 7, 13 mM substrate, KH2PO4 100 mM, 66 AU cytidine deaminase, 24 hours): quantitatively; conversion into deaminated product ([1]; pH 8, 13 mM substrate, KH2PO4 100 mM, 66 AU cytidine deaminase, 24 hours): quantitatively |
| Nc1ncnc2c1ncn2[C@H]1C[C@H](O)[C@@H](CO)O1 [deoxyadenosine] | – | – | deamination yield [2]: 59% |
